Assay results as given in article PMC9556824, “Design, synthesis and computational study of new benzofuran hybrids as dual PI3K/VEGFR2 inhibitors targeting cancer” (Scientific Reports, 2022).
Read-outs that look alike come from different tables or passages of the source.

Key:
[1] = test system: Hepatocellular carcinoma (HePG2); assay: Antitumor screening using MTT assay; type: cell-based, human; conditions: Homo sapiens; for viability at 1.56 µM: Conc. 1.56 µM; for viability at 1.56 µM / viability at 3.125 µM / viability at 6.25 µM / viability at 12.5 µM / viability at 25 µM / viability at 50 µM / viability at 100 µM: read-out: Average of Relative viability of cells (%); for viability at 3.125 µM: Conc. 3.125 µM; for viability at 6.25 µM: Conc. 6.25 µM; for viability at 12.5 µM: Conc. 12.5 µM; for viability at 25 µM: Conc. 25 µM; for viability at 50 µM: Conc. 50 µM; for viability at 100 µM: Conc. 100 µM; for IC50: mean ± SD, n = 3, read-out: In-vitro cytotoxicity IC50 (µM) HePG2
Excerpt: (§2) Hepatocellular carcinoma (HePG2), mammary gland breast cancer (MCF-7), epithelioid carcinoma cervix cancer (Hela), and human prostate cancer were included on the panel (PC3). […] The cell lines were obtained from the American Type Culture Collection (ATCC) through VACSERA, a Cairo-based holding firm for biological goods and vaccines.
(§3) The panel consisted of hepatocellular carcinoma (HePG2), mammary gland breast cancer (MCF-7), epithelioid carcinoma cervix cancer (Hela) and human prostate cancer (PC3). Human lung fibroblast (WI38) was used to assay the cytotoxicity effect on normal cell. The cell lines were obtained from ATCC via Holding company for biological products and vaccines (VACSERA), Cairo, Egypt. The cytotoxic activity was defined as the concentration of the compound that causes 50% growth inhibition compared with the growth of untreated cells.

[2] = test system: epithelioid carcinoma cervix cancer (Hela); assay: Antitumor screening using MTT assay; conditions: Homo sapiens, HeLa; for viability at 1.56 µM / viability at 3.125 µM / viability at 6.25 µM / viability at 12.5 µM / viability at 25 µM / viability at 50 µM / viability at 100 µM: read-out: Average of Relative viability of cells (%); for IC50: read-out: In-vitro cytotoxicity IC50 (µM) Hela
Excerpt: as §2, §3

[3] = test system: mammary gland breast cancer (MCF-7); assay: Antitumor screening using MTT assay; conditions: Homo sapiens; for viability at 1.56 µM / viability at 3.125 µM / viability at 6.25 µM / viability at 12.5 µM / viability at 25 µM / viability at 50 µM / viability at 100 µM: MCF7, read-out: Average of Relative viability of cells (%); for IC50: MCF7, read-out: In-vitro cytotoxicity IC50 (µM) MCF-7
Excerpt: as §2, §3

[4] = test system: HePG2, MCF-7, Hela, PC3 cell lines; assay: Antitumor screening using MTT assay, statements across several cell lines; type: cell-based, human; conditions: for IC50: Homo sapiens, Hela and PC3, one range for 9 and 10 together, read-out: IC50 values range against Hela and PC3 cell line
Excerpt: as §2, §3

[5] = test system: human prostate cancer (PC3); assay: Antitumor screening using MTT assay; conditions: Homo sapiens; for viability at 1.56 µM / viability at 3.125 µM / viability at 6.25 µM / viability at 12.5 µM / viability at 25 µM / viability at 50 µM / viability at 100 µM: read-out: Average of Relative viability of cells (%); for IC50: read-out: In-vitro cytotoxicity IC50 (µM) PC3
Excerpt: as §2, §3

[6] = test system: human lung fibroblast (WI38); assay: In vitro cytotoxicity against human normal cell line (MTT); type: cell-based; conditions: Homo sapiens, WI-38, human normal cell line WI38; mean ± SD, n = 3
Excerpt: (§1) The anticancer agent's selectivity for cancer cells is a critical consideration for any researcher, as it can decrease the molecule's adverse effects on normal human cells.

[7] = as above; type: cell-based; conditions: human, WI38, read-out: Average of Relative viability of cells (%); for viability at 3.125 µM: Conc. 3.125 µM; for viability at 1.56 µM: Conc. 1.56 µM; for viability at 6.25 µM: Conc. 6.25 µM; for viability at 12.5 µM: Conc. 12.5 µM; for viability at 25 µM: Conc. 25 µM; for viability at 50 µM: Conc. 50 µM; for viability at 100 µM: Conc. 100 µM
Excerpt: as §1

[8] = WI38 human lung fibroblast cells (normal cell line)
[9] = WI38 normal lung fibroblast cells

With COc1ccc(/C=N/N=C(\C)c2cc3ccccc3o2)cc1OC [Compound 9, (E)-1-[1-(benzofuran-2-yl)ethylidene]-2-((E)-3,4-dimethoxybenzylidene)hydrazine] the viability at 1.56 µM [1] was 100%, the viability at 3.125 µM [1] was 94.4% and the viability at 6.25 µM [1] was 78.2%. It also gave a viability at 12.5 µM [1] of 60.5%, a viability at 25 µM [1] of 49.6% and a viability at 50 µM [1] of 36.8%. For the same molecule, the viability at 100 µM [1] was 26.2%, the IC50 [1] was 26.4 ± 2.1 µM and the melting point was 130 to 132 °C. It also gave a viability at 1.56 µM [2] of 100%, a viability at 3.125 µM [2] of 92% and a viability at 6.25 µM [2] of 73.2%. For the same molecule, the viability at 12.5 µM [2] was 50.4%, the viability at 25 µM [2] was 37.1% and the viability at 50 µM [2] was 28.2%. The viability at 100 µM [2] was 20.3%, the IC50 [2] was 17 ± 1.4 µM and the viability at 1.56 µM [3] was 100%. For the same molecule, the viability at 3.125 µM [3] was 96%, the viability at 6.25 µM [3] was 79.5% and the viability at 12.5 µM [3] was 64.2%. It also gave a viability at 25 µM [3] of 50.6%, a viability at 50 µM [3] of 38.2% and a viability at 100 µM [3] of 25.3%. It also gave an IC50 [3] of 28.1 ± 2.3 µM, an IC50 [4] of 13.8 to 32.1 µM and a viability at 1.56 µM [5] of 100%. The viability at 3.125 µM [5] was 96.1%, the viability at 6.25 µM [5] was 75.8% and the viability at 12.5 µM [5] was 60.2%. It also gave a viability at 25 µM [5] of 52.6%, a viability at 50 µM [5] of 44.8% and a viability at 100 µM [5] of 31.2%. The IC50 [5] was 32.1 ± 2.2 µM, the IC50 [6] was 82.3 ± 4.3 µM and the viability at 3.125 µM [7, 8] was 100%. For the same molecule, the viability at 1.56 µM [7, 9] was 100%, the viability at 6.25 µM [7, 9] was 99.7% and the viability at 12.5 µM [7, 9] was 85.2%. For the same molecule, the viability at 25 µM [7, 9] was 74.5%, the viability at 50 µM [7, 9] was 60.6% and the viability at 100 µM [7, 9] was 47.9%.

In the case of COc1ccccc1/C=N/N=C(\C)c1cc2ccccc2o1 [Compound 10, (E)-1-[1-(benzofuran-2-yl)ethylidene]-2-((E)-2-methoxybenzylidene)hydrazine], the viability at 1.56 µM [1] is reported as 100%, the viability at 3.125 µM [1] is reported as 100% and the viability at 6.25 µM [1] is reported as 91.9%. It also gave a viability at 12.5 µM [1] of 72.7%, a viability at 25 µM [1] of 63.1% and a viability at 50 µM [1] of 50.2%. For the same molecule, the viability at 100 µM [1] was 38.1%, the IC50 [1] was 51 ± 3 µM and the melting point was 154 to 156 °C. It also gave a viability at 1.56 µM [2] of 100%, a viability at 3.125 µM [2] of 85.9% and a viability at 6.25 µM [2] of 63.5%. For the same molecule, the viability at 12.5 µM [2] was 48.1%, the viability at 25 µM [2] was 33.7% and the viability at 50 µM [2] was 25.8%. The viability at 100 µM [2] was 17%, the IC50 [2] was 13.8 ± 1 µM and the viability at 1.56 µM [3] was 100%. The viability at 3.125 µM [3] was 100%, the viability at 6.25 µM [3] was 94.7% and the viability at 12.5 µM [3] was 79.3%. For the same molecule, the viability at 25 µM [3] was 65.2%, the viability at 50 µM [3] was 58% and the viability at 100 µM [3] was 40.4%. For the same molecule, the IC50 [3] was 62.8 ± 3.3 µM, the IC50 [4] was 13.8 to 32.1 µM and the viability at 1.56 µM [5] was 100%. The viability at 3.125 µM [5] was 96.3%, the viability at 6.25 µM [5] was 78.2% and the viability at 12.5 µM [5] was 59.1%. The viability at 25 µM [5] was 46.8%, the viability at 50 µM [5] was 37% and the viability at 100 µM [5] was 23.5%. For the same molecule, the IC50 [5] was 24.8 ± 1.9 µM, the IC50 [6] was 67.7 ± 3.4 µM and the viability at 3.125 µM [7, 8] was 100%. For the same molecule, the viability at 1.56 µM [7, 9] was 100%, the viability at 6.25 µM [7, 9] was 100% and the viability at 12.5 µM [7, 9] was 93.6%. It also gave a viability at 25 µM [7, 9] of 71.7%, a viability at 50 µM [7, 9] of 54.8% and a viability at 100 µM [7, 9] of 43.3%.

In the case of C/C(=N\NC(=O)Nc1ccc(Cl)cc1)c1cc2ccccc2o1 [Compound 7, (E)-2-[1-(benzofuran-2-yl)ethylidene]-N-(4-chlorophenyl)hydrazine-1-carboxamide], the viability at 1.56 µM [1] is reported as 100%, the viability at 3.125 µM [1] is reported as 100% and the viability at 6.25 µM [1] is reported as 99.7%. It also gave a viability at 12.5 µM [1] of 87.4%, a viability at 25 µM [1] of 72.5% and a viability at 50 µM [1] of 60.2%. The viability at 100 µM [1] was 48.1%, the IC50 [1] was 81.6 ± 3.9 µM and the melting point was 235 to 237 °C. The viability at 1.56 µM [2] was 100%, the viability at 3.125 µM [2] was 100% and the viability at 6.25 µM [2] was 93.8%. The viability at 12.5 µM [2] was 80.7%, the viability at 25 µM [2] was 68.4% and the viability at 50 µM [2] was 56.3%. It also gave a viability at 100 µM [2] of 42.9%, an IC50 [2] of 66 ± 3.2 µM and a viability at 1.56 µM [3] of 100%. For the same molecule, the viability at 3.125 µM [3] was 100%, the viability at 6.25 µM [3] was 97.6% and the viability at 12.5 µM [3] was 88.9%. The viability at 25 µM [3] was 70.2%, the viability at 50 µM [3] was 58% and the viability at 100 µM [3] was 47.8%. For the same molecule, the IC50 [3] was 76.9 ± 3.8 µM, the “anticancer activity towards the four / all assessed cell lines (grade)” value ([4]; HePG2, MCF-7, Hela, PC3) was “weak (51–100 (weak))” and the viability at 1.56 µM [5] was 100%. It also gave a viability at 3.125 µM [5] of 100%, a viability at 6.25 µM [5] of 100% and a viability at 12.5 µM [5] of 93.6%. The viability at 25 µM [5] was 76.5%, the viability at 50 µM [5] was 64.8% and the viability at 100 µM [5] was 50.9%. The IC50 [5] was 93.9 ± 4.7 µM, the IC50 [6] was > 100 µM and the viability at 1.56 µM [7, 8] was 100%. It also gave a viability at 3.125 µM [7, 8] of 100%, a viability at 6.25 µM [7, 8] of 100% and a viability at 12.5 µM [7, 8] of 100%. For the same molecule, the viability at 25 µM [7, 8] was 89.3%, the viability at 50 µM [7, 8] was 76.2% and the viability at 100 µM [7, 8] was 55.5%.
